Test results reported in patent publication US9309224B2 (Deciphera Pharmaceuticals, LLC, priority 2013, dated 2016).

Assays:
[1] = biological target: T1, unphosphorylated PDGFRβ kinase (uPDGFRβ, Seq. ID No. 3) (Homo sapiens, UniProt P09619); assay: Unphosphorylated PDGFRβ kinase assay (pyruvate kinase/lactate dehydrogenase coupled); type: biochemical; conditions: ATP 500 μM
T1 construct: purchased DeCode
From the text: Unphosyhorylated PDGFRβ (uPDGFRβkinase (Seq. ID No. 3) assay

[2] = biological target: T2, unphosphorylated c-FMS kinase (uFMS, Seq. ID no. 1) (Homo sapiens, UniProt P07333); assay: uFMS kinase assay (pyruvate kinase/lactate dehydrogenase coupled); type: biochemical; conditions: ATP 500 μM
T2 construct: purchased Millipore
T2 sequence (P07333 538-972): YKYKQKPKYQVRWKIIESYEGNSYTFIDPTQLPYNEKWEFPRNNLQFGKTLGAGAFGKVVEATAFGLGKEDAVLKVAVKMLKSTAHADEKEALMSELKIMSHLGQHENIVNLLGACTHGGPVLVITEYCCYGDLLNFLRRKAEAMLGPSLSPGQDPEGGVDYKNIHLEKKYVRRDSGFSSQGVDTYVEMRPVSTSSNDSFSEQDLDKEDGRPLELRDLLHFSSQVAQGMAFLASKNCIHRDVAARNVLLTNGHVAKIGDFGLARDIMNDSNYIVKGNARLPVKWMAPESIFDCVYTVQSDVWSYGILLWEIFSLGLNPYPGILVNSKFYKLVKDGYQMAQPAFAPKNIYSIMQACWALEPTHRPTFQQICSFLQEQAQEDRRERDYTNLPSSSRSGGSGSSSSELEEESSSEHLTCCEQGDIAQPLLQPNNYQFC

[3] = biological target: T3, unphosphorylated c-KIT kinase (uKIT, Seq. ID no. 2) (Homo sapiens, UniProt P10721); assay: uKit kinase assay (pyruvate kinase/lactate dehydrogenase coupled); type: biochemical; conditions: ATP 2000 μM
T3 construct: uKit with N-terminal GST fusion used for
T3 sequence (P10721 with tags, fused parts or gaps): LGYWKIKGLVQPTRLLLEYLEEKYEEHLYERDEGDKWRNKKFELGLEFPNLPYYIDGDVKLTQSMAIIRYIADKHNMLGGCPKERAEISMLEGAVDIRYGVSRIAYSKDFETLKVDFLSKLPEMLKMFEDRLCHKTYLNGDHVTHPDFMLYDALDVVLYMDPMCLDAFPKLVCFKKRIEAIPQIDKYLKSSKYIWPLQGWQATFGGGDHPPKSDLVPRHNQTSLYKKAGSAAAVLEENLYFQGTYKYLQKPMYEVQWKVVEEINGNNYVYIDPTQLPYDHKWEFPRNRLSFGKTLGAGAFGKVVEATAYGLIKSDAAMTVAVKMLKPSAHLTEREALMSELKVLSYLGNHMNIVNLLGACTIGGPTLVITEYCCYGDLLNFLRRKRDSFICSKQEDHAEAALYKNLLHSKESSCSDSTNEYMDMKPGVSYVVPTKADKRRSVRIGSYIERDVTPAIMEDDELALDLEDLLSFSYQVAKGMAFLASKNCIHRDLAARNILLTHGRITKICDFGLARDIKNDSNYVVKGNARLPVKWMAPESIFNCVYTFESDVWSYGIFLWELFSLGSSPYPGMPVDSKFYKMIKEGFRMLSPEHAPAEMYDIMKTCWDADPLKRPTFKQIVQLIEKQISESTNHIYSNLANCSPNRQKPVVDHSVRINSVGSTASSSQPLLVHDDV
Experimental: In this assay, the oxidation of NADH (thus the decrease at A340 nm) was continuously monitored spectrophometrically. […] The inhibition reaction was started by mixing serial diluted test compound with the above reaction mixture. The absorption at 340 nm was monitored continuously for 4 hours at 30° C. on Synergy 2 plate reader (BioTech).

osteoclast precursors = assay: Osteoclast tartrate-resistant acid phosphatase assay; type: cell-based; conditions: Osteoclast; 7-14 days, RANKL and M-CSF
Experimental: Diluted compound was transferred to a 384-well black clear bottom plate. Two-thousand five hundred osteoclast precursors (Lonza, Walkersville, Md.) were added per well in growth media containing Receptor Activator of Nuclear Factor Kappa-beta ligand (RANKL) and M-CSF (R&D Systems, Minneapolis, Minn.). Plates were incubated for 7-14 days at 37 degrees Celsius, 5% CO2, and 95% humidity to allow differentiation of osteoclast precursors. […] Tartrate-resistant acid phosphatase activity in the supernatant samples was determined using an acid phosphatase assay kit (Sigma, St. Louis, Mo.). Absorbance was measured at 550 nm using a plate reader. Data was analyzed using Prism software (Graphpad, San Diego, Calif.) to calculate IC50 values.

M-NFS-60 cells = assay: M-NFS-60 cell proliferation assay; type: cell-based; conditions: 67 h incubation, resazurin
Experimental: M-NFS-60 Cell Proliferation Assay A serial dilution of test compound was dispensed into a 384-well black clear bottom plate (Corning, Corning, N.Y.). Two thousand five hundred cells were added per well in 50 μL complete growth medium. […] IC50 values were calculated from a series of percent inhibition values determined at a range of inhibitor concentrations using software routines as implemented in the GraphPad Prism software package.

[4] = biological target: T4, phospho-FMS in THP-1 cells (Homo sapiens, UniProt P07333); assay: Phospho-FMS ELISA assay in THP-1 cells; type: cell-based; conditions: 4 hours compound, M-CSF stimulated; read-out: pFMS inhibition in THP-1 cells
T4 construct: endogenous in cells; host or cells: THP-1 (ATCC TIB-202)
T4 sequence (P07333 20-972): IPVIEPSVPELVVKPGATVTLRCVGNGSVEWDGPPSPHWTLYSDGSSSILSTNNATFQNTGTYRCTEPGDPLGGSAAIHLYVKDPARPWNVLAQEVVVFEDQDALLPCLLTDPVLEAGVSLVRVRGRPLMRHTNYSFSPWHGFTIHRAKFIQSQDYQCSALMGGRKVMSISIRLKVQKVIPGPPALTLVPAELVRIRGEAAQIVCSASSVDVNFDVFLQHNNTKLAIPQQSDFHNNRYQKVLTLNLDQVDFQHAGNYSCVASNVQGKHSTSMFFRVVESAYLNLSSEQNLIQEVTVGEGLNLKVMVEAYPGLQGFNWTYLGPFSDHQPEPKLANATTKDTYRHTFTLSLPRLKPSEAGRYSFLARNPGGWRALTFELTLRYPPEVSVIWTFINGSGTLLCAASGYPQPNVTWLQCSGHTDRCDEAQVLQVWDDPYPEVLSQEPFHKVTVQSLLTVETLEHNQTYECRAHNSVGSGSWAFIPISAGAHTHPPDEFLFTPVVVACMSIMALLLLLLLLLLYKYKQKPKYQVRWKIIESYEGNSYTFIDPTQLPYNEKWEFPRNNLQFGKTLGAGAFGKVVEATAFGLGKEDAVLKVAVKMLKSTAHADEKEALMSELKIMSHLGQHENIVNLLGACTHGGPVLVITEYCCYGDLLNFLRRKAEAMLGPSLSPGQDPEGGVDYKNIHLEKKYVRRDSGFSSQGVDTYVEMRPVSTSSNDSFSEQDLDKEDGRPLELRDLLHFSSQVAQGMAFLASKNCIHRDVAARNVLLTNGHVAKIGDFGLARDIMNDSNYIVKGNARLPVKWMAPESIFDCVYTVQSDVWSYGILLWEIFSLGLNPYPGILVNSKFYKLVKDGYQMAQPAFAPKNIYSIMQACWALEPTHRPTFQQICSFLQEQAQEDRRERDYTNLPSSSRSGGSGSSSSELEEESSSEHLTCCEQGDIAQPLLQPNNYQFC

T1 sequence (P09619 557-1105): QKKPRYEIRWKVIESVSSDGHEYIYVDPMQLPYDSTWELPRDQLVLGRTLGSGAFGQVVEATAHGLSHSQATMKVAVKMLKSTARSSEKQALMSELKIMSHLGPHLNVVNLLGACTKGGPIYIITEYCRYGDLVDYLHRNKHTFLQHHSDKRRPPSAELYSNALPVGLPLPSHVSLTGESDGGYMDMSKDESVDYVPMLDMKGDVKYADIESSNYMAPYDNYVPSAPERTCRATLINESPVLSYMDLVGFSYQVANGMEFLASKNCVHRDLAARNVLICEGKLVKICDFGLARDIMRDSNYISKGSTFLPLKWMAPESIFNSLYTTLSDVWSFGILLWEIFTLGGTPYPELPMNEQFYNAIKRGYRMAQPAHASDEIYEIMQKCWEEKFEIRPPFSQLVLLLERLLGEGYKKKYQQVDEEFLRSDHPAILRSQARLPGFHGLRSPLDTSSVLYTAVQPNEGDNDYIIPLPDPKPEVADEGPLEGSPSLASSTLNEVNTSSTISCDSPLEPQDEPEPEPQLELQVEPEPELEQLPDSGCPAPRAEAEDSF

| Structure (SMILES) | IC50 [1] [nM] | IC50 [2] [nM] | IC50 [3] [nM] | IC50 (osteoclast precursors) [nM] | IC50 (M-NFS-60 cells) [nM] | IC50 [4] [nM] |
| --- | --- | --- | --- | --- | --- | --- |
| CN(C)[C@@H]1CCN(C(=O)Nc2cc(Oc3ccc(NC(=O)NC(=O)C(C)(C)C)nc3)ccn2)C1 [Example 68, (R)-3-(dimethylamino)-N-(4-((6-(3-pivaloylureido)pyridin-3-yl)oxy)pyridin-2-yl)pyrrolidine-1-carboxamide] | 10 to 100 | < 10 | > 1000 | < 10 | < 10 | < 10 |
| Cc1nc(NC(=O)NC(=O)C(C)(C)C)ccc1Oc1ccnc(NC(=O)C(C)C)c1 [Example 13, N-((5-((2-isobutyramidopyridin-4-yl)oxy)-6-methylpyridin-2-yl)carbamoyl)pivalamide] | 100 to 1000 | < 10 | > 1000 | 10 to 100 | < 10 | < 10 |
| CCC(=O)Nc1cc(Oc2ccc(NC(=O)NC(=O)C(C)(C)C)nc2C)ccn1 [Example 12, N-((6-methyl-5-((2-propionamidopyridin-4-yl)oxy)pyridin-2-yl)carbamoyl)pivalamide] | 100 to 1000 | < 10 | > 1000 | 10 to 100 | < 10 | 10 to 100 |
| CC1(C(=O)NC(=O)Nc2ccc(Oc3ccnc(NC(=O)C4CC4)c3)cn2)CC1 [Example 30, N-((5-((2-(cyclopropanecarboxamido)pyridin-4-yl)oxy)pyridin-2-yl)carbamoyl)-1-methylcyclopropanecarboxamide] | 100 to 1000 | < 10 | 10 to 100 | < 10 | 10 to 100 | < 10 |
| COC1(C(=O)NC(=O)Nc2ccc(Oc3ccnc(NC(C)=O)c3)cn2)CC1 [Example 27, N-((5-((2-acetamidopyridin-4-yl)oxy)pyridin-2-yl)carbamoyl)-1-methoxycyclopropanecarboxamide] | 100 to 1000 | 10 to 100 | > 1000 | < 10 | 10 to 100 | 10 to 100 |
| CC(=O)Nc1cc(Oc2ccc(NC(=O)NC(=O)C3(C)CC3)nc2)ccn1 [Example 19, N-((5-((2-acetamidopyridin-4-yl)oxy)pyridin-2-yl)carbamoyl)-1-methylcyclopropanecarboxamide] | 100 to 1000 | 10 to 100 | 100 to 1000 | < 10 | 10 to 100 | 10 to 100 |
| Cc1nc(NC(=O)NC(=O)C(C)(C)C)ccc1Oc1ccnc(NC(=O)N2CCCC2)c1 [Example 71, N-(4-((2-methyl-6-(3-pivaloylureido)pyridin-3-yl)oxy)pyridin-2-yl)pyrrolidine-1-carboxamide] | 100 to 1000 | < 10 | > 1000 | < 10 | < 10 | < 10 |
| CC(=O)Nc1cc(Oc2ccc(NC(=O)NC(=O)C(C)(C)C)nc2C)ccn1 [Example 9, N-((5-((2-acetamidopyridin-4-yl)oxy)-6-methylpyridin-2-yl)carbamoyl)pivalamide] | > 1000 | < 10 | > 1000 | < 10 | < 10 | < 10 |
| Cc1nc(NC(=O)NC(=O)C(C)(C)C)ccc1Oc1ccnc(NC(=O)N2CCN(C)CC2)c1 [Example 69, 4-methyl-N-(4-((2-methyl-6-(3-pivaloylureido)pyridin-3-yl)oxy)pyridin-2-yl)piperazine-1-carboxamide] | > 1000 | < 10 | > 1000 | < 10 | < 10 | < 10 |
| CC(C)C(=O)NC(=O)Nc1ccc(Oc2ccnc(NC(=O)N3CCN(C)CC3)c2)cn1 [Example 66, N-(4-((6-(3-isobutyrylureido)pyridin-3-yl)oxy)pyridin-2-yl)-4-methylpiperazine-1-carboxamide] | 100 to 1000 | < 10 | > 1000 | < 10 | < 10 | < 10 |
| CC(=O)Nc1cc(Oc2ccc(NC(=O)NC(=O)C3CCOCC3)nc2)ccn1 [Example 5, N-((5-((2-acetamidopyridin-4-yl)oxy)pyridin-2-yl)carbamoyl)tetrahydro-2H-pyran-4-carboxamide] | 100 to 1000 | 10 to 100 | 100 to 1000 | < 10 | 10 to 100 | < 10 |
| COC(C)(C)C(=O)NC(=O)Nc1cc(C)c(Oc2ccnc(NC(C)=O)c2)cn1 [Example 38, N-((5-((2-acetamidopyridin-4-yl)oxy)-4-methylpyridin-2-yl)carbamoyl)-2-methoxy-2-methylpropanamide] | 10 to 100 | < 10 | 100 to 1000 | 10 to 100 | < 10 | < 10 |
| Cc1nc(NC(=O)NC(=O)C(C)(C)C)ccc1Oc1ccnc(NC(=O)N2CCOCC2)c1 [Example 63, N-(4-((2-methyl-6-(3-pivaloylureido)pyridin-3-yl)oxy)pyridin-2-yl)morpholine-4-carboxamide] | > 1000 | < 10 | > 1000 | < 10 | 10 to 100 | 10 to 100 |
| CN(C)[C@H]1CCN(C(=O)Nc2cc(Oc3ccc(NC(=O)NC(=O)C(C)(C)C)nc3)ccn2)C1 [Example 47, (S)-3-(dimethylamino)-N-(4-((6-(3-pivaloylureido)pyridin-3-yl)oxy)pyridin-2-yl)pyrrolidine-1-carboxamide] | 10 to 100 | < 10 | > 1000 | < 10 | < 10 | < 10 |
| CC(C)(C)C(=O)NC(=O)Nc1ccc(Oc2ccnc(NC(=O)N3CCOCC3)c2)cn1 [Example 46, N-(4-((6-(3-pivaloylureido)pyridin-3-yl)oxy)pyridin-2-yl)morpholine-4-carboxamide] | 100 to 1000 | < 10 | 100 to 1000 | < 10 | < 10 | < 10 |
| CC(=O)Nc1cc(Oc2cnc(NC(=O)NC(=O)C(C)(C)C)cc2C)ccn1 [Example 42, N-((5-((2-acetamidopyridin-4-yl)oxy)-4-methylpyridin-2-yl)carbamoyl)pivalamide] | 10 to 100 | < 10 | 100 to 1000 | < 10 | < 10 | < 10 |
| CN1CCN(C2CCN(C(=O)Nc3cc(Oc4ccc(NC(=O)NC(=O)C(C)(C)C)nc4)ccn3)CC2)CC1 [Example 81, 4-(4-methylpiperazin-1-yl)-N-(4-((6-(3-pivaloylureido)pyridin-3-yl)oxy)pyridin-2-yl)piperidine-1-carboxamide] | 100 to 1000 | < 10 | > 1000 | < 10 | 10 to 100 | < 10 |
| CC(C)C(=O)Nc1cc(Oc2ccc(NC(=O)NC(=O)C(C)(C)C)nc2)ccn1 [Example 17, N-((5-((2-isobutyramidopyridin-4-yl)oxy)pyridin-2-yl)carbamoyl)pivalamide] | 100 to 1000 | 10 to 100 | > 1000 | 10 to 100 | 10 to 100 | 10 to 100 |
| CN(C)C(=O)Nc1cc(Oc2ccc(NC(=O)NC(=O)C3(C)CCOCC3)nc2)ccn1 [Example 65, N-((5-((2-(3,3-dimethylureido)pyridin-4-yl)oxy)pyridin-2-yl)carbamoyl)-4-methyltetrahydro-2H-pyran-4-carboxamide] | 100 to 1000 | < 10 | 100 to 1000 | < 10 | 10 to 100 | 10 to 100 |
| COC1(C(=O)NC(=O)Nc2ccc(Oc3ccnc(NC(=O)C4CC4)c3)cn2)CC1 [Example 41, N-((5-((2-(cyclopropanecarboxamido)pyridin-4-yl)oxy)pyridin-2-yl)carbamoyl)-1-methoxycyclopropanecarboxamide] | 10 to 100 | < 10 | 100 to 1000 | < 10 | 10 to 100 | 10 to 100 |
| CCC(=O)Nc1cc(Oc2ccc(NC(=O)NC(=O)C3(C)CC3)nc2)ccn1 [Example 36, 1-methyl-N-((5-((2-propionamidopyridin-4-yl)oxy)pyridin-2-yl)carbamoyl)cyclopropanecarboxamide] | 10 to 100 | < 10 | 100 to 1000 | < 10 | 10 to 100 | 10 to 100 |
